For test [1], the system named is 5′ deiodinase. Nature of the test: effect of in vitro free fatty acids on 5′ deiodinase activity (thyroid hormone synthesis in vitro). The conditions noted are these: 1 mM free fatty acid; as a function of substrate concentration. The test is classed as biochemical. The procedure: (§1) Reaction velocities were measured under control conditions (▴) and in the presence of 1 mM free fatty acids palmitic acid (●) and oleic acid (▪). Each point on the curve represents the mean of triplicate determinations. Lineweaver-Burk plots described lines characterized by r^2 from 0.988-0.999.

The subject of test [2] is 5′ deiodinase. The test can be described thus: 5′ deiodinase activity as a function of substrate concentration (Lineweaver-Burk), control conditions. The test is classed as biochemical. The conditions noted are these: in vitro, without free fatty acids, mean of triplicate determinations, Lineweaver-Burk plot, FIG. 2A. The procedure:
as §1

Take `CCCCCCCCCCCCCCCC(=O)O` [palmitic acid]: in the test with 5′ deiodinase [1], the “effect on thyroid hormone synthesis in vitro (5′ deiodinase activity)” value was “inhibit thyroid hormone synthesis in vitro”.

Take `CCCCCCCC/C=C\CCCCCCCC(=O)O` [oleic acid]: the “effect on thyroid hormone synthesis in vitro (5′ deiodinase activity)” value in the test with 5′ deiodinase [1] is “inhibit thyroid hormone synthesis in vitro”.

As to `N[C@@H](Cc1ccc(Oc2cc(I)c(O)c(I)c2)c(I)c1)C(=O)O` [rT3], the Km in the test with 5′ deiodinase [2] amounted to 2.38 µM.

(Values after patent publication US7414077B2, “Therapeutic intervention to mimic the effect of caloric restriction” (priority 1999, dated 2008).)
